From ChEMBL document CHEMBL1201862, “PubChem BioAssay data set” (2004)
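Where inhibition never reached the appropriate level, the endpoint shown equals the highest concentration tested. Otherwise, values were interpolated linearly from a five-concentration, 48-hour dose response in 96-well plates. GI50 marks 50% less growth.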 Activity calls are given as the source filed them. Rule as the data show it: active = GI50 up to about 1.1 µM and inactive = higher.

How the values were obtained:
Assay in all cases: growth of human tumour cells (NCI), 48 h
[1] = test system: SF-539
[2] = test system: SNB-19
[3] = test system: A498
[4] = test system: IGROV-1
[5] = test system: COLO 205
[6] = test system: UACC-62
[7] = test system: LOX IMVI
[8] = test system: SF-295
[9] = test system: SK-MEL-28
[10] = test system: NCI-H23
[11] = test system: OVCAR-3
[12] = test system: HL-60
[13] = test system: K562
[14] = test system: 786-0
[15] = test system: SR
[16] = test system: SN12C
[17] = test system: RPMI-8226
[18] = test system: HOP-92

Measured: GI50

N#CCC(=O)Nc1cccc(C(F)(F)F)c1
inactive: [1] > 100 µM | [2] > 100 µM | [3] > 100 µM | [4] > 100 µM | [5] > 100 µM | [6] > 100 µM | [7] > 100 µM | [8] > 100 µM | [9] > 100 µM | [10] > 100 µM | [11] 84.3 µM | [12] > 100 µM | [13] > 10 µM | [14] > 100 µM | [15] > 100 µM | [16] > 100 µM

COC(=O)CC(NC(=O)OCc1ccccc1)C(C(=O)OCc1ccccc1)C(C)(OC)OC (stereo not given)
inactive: [1] 29.2 µM | [2] 38.2 µM | [17] 10 µM | [3] 3.95 µM | [4] 19.6 µM | [5] 16.9 µM | [6] 10.5 µM | [7] 16.6 µM | [8] 24.6 µM | [9] 52.1 µM | [10] 17.4 µM | [11] 21.3 µM | [12] 15.1 µM | [13] 10.6 µM | [14] 33.3 µM | [15] 8.81 µM | [16] 30.5 µM

CC(C)C1=CC(=O)C(C)(C2=NC(C)(C)CO2)c2ccccc21 (stereo not given)
inactive: [1] > 100 µM | [2] > 100 µM | [17] 78.2 µM | [4] > 100 µM | [5] > 100 µM | [6] > 100 µM | [8] > 100 µM | [9] > 100 µM | [18] > 100 µM | [10] > 100 µM | [11] > 100 µM | [12] > 100 µM | [13] 50.4 µM | [14] > 100 µM | [15] 60.3 µM | [16] > 100 µM

C#C[C@@H](CCCC)OC(=O)N[C@H](C)c1ccccc1
inactive: [1] 2.16 µM | [2] 93.3 µM | [17] 23 µM | [4] 23 µM | [5] 2.45 µM | [6] 4.98 µM | [7] 33.2 µM | [8] 77.1 µM | [9] > 100 µM | [18] 1.83 µM | [10] 1.91 µM | [11] 35.4 µM | [12] 15.3 µM | [13] 31.9 µM | [14] 59.6 µM | [15] 21.3 µM | [16] 71.6 µM

CCCCCCCCCCCCCC(=O)NCO
inactive: [1] > 100 µM | [2] > 100 µM | [17] > 100 µM | [3] > 100 µM | [4] > 100 µM | [5] > 100 µM | [6] > 100 µM | [7] > 100 µM | [8] > 100 µM | [9] > 100 µM | [18] > 100 µM | [10] > 100 µM | [11] > 100 µM | [12] > 100 µM | [14] > 100 µM | [16] > 100 µM

CC/C=C\C/C=C\C1CC(=O)NCCCNCCCCN1 (stereo not given)
inactive: [1] > 100 µM | [2] > 100 µM | [5] > 100 µM | [7] > 100 µM | [8] > 100 µM | [9] > 100 µM | [18] > 100 µM | [10] > 100 µM | [12] > 100 µM | [14] > 100 µM | [15] > 100 µM | [16] > 100 µM

O=[N+]([O-])c1cc(-c2nnc(S)[nH]2)ccc1O
inactive: [1] > 100 µM | [2] > 100 µM | [3] > 100 µM | [4] > 100 µM | [5] 20.1 µM | [6] > 100 µM | [7] > 100 µM | [8] > 100 µM | [9] > 100 µM | [10] > 100 µM | [12] > 100 µM | [13] > 100 µM | [14] > 100 µM | [16] > 100 µM

O=C1C2=C(c3ccccc31)C(c1ccc([N+](=O)[O-])cc1)NC(S)=N2 (stereo not given)
inactive: [1] > 100 µM | [2] 97.3 µM | [17] 30.2 µM | [3] > 100 µM | [4] 50 µM | [5] > 100 µM | [6] 43.5 µM | [8] 58.6 µM | [9] 59.3 µM | [18] 51.1 µM | [10] 38.5 µM | [11] 49.9 µM | [12] 35.6 µM | [13] 49.1 µM | [14] > 100 µM | [16] 47.4 µM

O=CC[C@H]1C(=O)C[C@@H]2CCC[C@@H]21
inactive: [1] 50.1 µM | [2] > 100 µM | [17] 42.4 µM | [3] > 100 µM | [4] > 100 µM | [5] > 100 µM | [6] 84.3 µM | [8] > 100 µM | [9] > 100 µM | [18] 57.3 µM | [10] 43.7 µM | [11] 47.6 µM | [12] 32.1 µM | [13] 34.2 µM | [14] > 100 µM | [16] 92.3 µM

Cc1nnc2c3nnc(C)n3c3ccccc3n12
inactive: [1] > 100 µM | [2] > 100 µM | [17] > 100 µM | [3] > 100 µM | [4] > 100 µM | [5] > 100 µM | [6] > 100 µM | [7] > 100 µM | [8] > 100 µM | [9] > 100 µM | [18] > 100 µM | [10] > 100 µM | [11] > 100 µM | [13] > 100 µM | [14] > 100 µM | [16] > 100 µM

Cc1c(Cl)ccc2c1NC(=O)C2(O)C(C(=O)c1ccccc1)c1ccccc1 (stereo not given)
inactive: [1] 74.6 µM | [2] 62.8 µM | [17] 25.9 µM | [3] 24 µM | [4] > 100 µM | [5] > 100 µM | [6] 19.5 µM | [7] 44.2 µM | [8] 36.5 µM | [9] 94.6 µM | [10] 4.98 µM | [11] > 10 µM | [12] 13.2 µM | [13] 31.1 µM | [14] 32.4 µM | [15] 27.3 µM | [16] 76.6 µM

Cc1ccc(NC(=O)C(=O)Cc2cccc[n+]2[O-])cc1C
inactive: [1] > 100 µM | [2] > 100 µM | [17] > 100 µM | [3] > 100 µM | [4] > 100 µM | [5] > 100 µM | [6] > 100 µM | [7] > 100 µM | [8] > 100 µM | [9] > 100 µM | [10] > 100 µM | [11] > 100 µM | [12] > 100 µM | [13] > 100 µM | [14] > 100 µM | [15] > 100 µM | [16] > 100 µM

c1cnc2c(c1)-n1cccc1C1(CCSCC1)NN2
inactive: [1] > 100 µM | [2] > 100 µM | [17] > 100 µM | [5] > 100 µM | [7] 68.7 µM | [8] > 100 µM | [9] > 100 µM | [11] > 100 µM | [12] 39.6 µM | [13] 89.5 µM | [14] > 100 µM | [15] 61.8 µM | [16] > 100 µM

CC(=O)Nc1ccc(S(=O)(=O)N/N=C(\C)CN2C(=O)c3ccccc3C2=O)cc1
inactive: [1] > 100 µM | [2] > 100 µM | [17] > 100 µM | [3] > 100 µM | [4] > 100 µM | [5] > 100 µM | [6] > 100 µM | [8] > 100 µM | [10] > 100 µM | [11] > 100 µM | [12] > 100 µM | [13] > 100 µM | [14] > 100 µM | [15] > 100 µM | [16] 55.2 µM

O=C1/C(=C/c2ccc(Cl)cc2)COc2ccc(Br)cc21
inactive: [1] > 100 µM | [17] 6.22 µM | [3] > 100 µM | [4] > 100 µM | [5] > 100 µM | [7] > 100 µM | [8] > 100 µM | [9] > 100 µM | [18] > 100 µM | [10] > 100 µM | [11] > 100 µM | [12] > 100 µM | [13] > 100 µM | [14] > 100 µM

COc1ccc2nc(-c3cccs3)cc(C(O)CN3CCSCC3)c2c1 (stereo not given)
inactive: [1] 22.1 µM | [2] 29.2 µM | [17] 10.5 µM | [4] 36 µM | [5] 22.9 µM | [6] 17.7 µM | [7] 16.5 µM | [8] 27.6 µM | [9] 24.9 µM | [18] 14.3 µM | [10] 20.9 µM | [11] 36.8 µM | [12] 2.58 µM | [13] 12.9 µM | [14] 16.8 µM | [16] 25.1 µM

NC(=O)CCC(NC(=O)C(F)(F)F)C(=O)O (stereo not given)
inactive: [1] > 100 µM | [2] > 100 µM | [17] > 100 µM | [3] > 100 µM | [4] > 100 µM | [5] > 100 µM | [6] > 100 µM | [7] > 100 µM | [8] > 100 µM | [9] > 100 µM | [18] > 100 µM | [10] > 100 µM | [11] > 100 µM | [13] > 100 µM | [14] > 100 µM | [16] > 100 µM

Cc1ccc(NC(=O)CC/C(CC(=O)c2ccc(F)cc2)=N\NC(=O)C(=O)NN)cc1C
inactive: [1] > 100 µM | [2] > 100 µM | [3] > 100 µM | [4] > 100 µM | [5] > 100 µM | [6] > 100 µM | [7] > 100 µM | [8] > 100 µM | [9] > 100 µM | [18] > 100 µM | [10] > 100 µM | [11] > 100 µM | [12] 41.5 µM | [13] > 100 µM | [14] > 100 µM | [16] > 100 µM
